Experimental data reported in patent publication US7842678B2, “Compositions comprising oligosaccharides” (priority 2003, dated 2010).

Assays:
[1] = system: VTEC NCTC 12900 adhesion to HT29 cells; assay: Adhesion assay of VTEC to HT29 cells, cultures subcultured on three successive days (Example 2); assay type: cell-based, E. coli; conditions: for Inhibition of adhesion of VTEC to HT29 cells (FIG. 2): VTEC subcultured on three successive days; for Inhibition of adhesion of VTEC to HT29 cells (FIG. 1): 2.5 mg ml, plate counting, relative to oligosaccharide-free control
Experimental: VTEC NCTC 12900 was inoculated from frozen stocks into Dulbecco's modified eagle medium (DMEM) with added non-essential amino acids (1% v/v) and foetal bovine serum (5% v/v). The culture was incubated anaerobically at 37° C. for 18 h. A 20 μl aliquot was transferred into 2 ml of fresh DMEM, and incubated under the same conditions for 24 h. This was repeated twice more, so that the organism was subcultured on three successive days. An adhesion assay was then carried out as described previously, using 2.5 mg ml methyl-α-D-mannopyrannoside and D-mannose, and the adhered bacteria were enumerated by using plate counting.
Alpha 1,2 mannobiose and alpha 1,6 mannobiose were assayed for anti-adhesive activity using the method described hereinabove, with the modification that the VTEC cultures were subcultured on three successive days as described above.
Further oligosaccharides (pectic oligosaccharides, isomalto-oligosaccharides, GOS, partially hydrolyzed guar gum, xylo oligosaccharides and lactulose) have been tested for anti-adhesive activity against E. coli, both VTEC and EPEC pathovars. Methods were as described previously but with three subcultures included in the culture preparation stage, as described above. Compounds tested included GOS and pectic oligosaccharides that had been further purified by ultrafiltration to remove nitrates.

[2] = system: EPEC adhesion to HT29 cells; assay: Adhesion assay of EPEC to HT29 cell monolayers (Example 1); assay type: cell-based, E. coli; conditions: oligosaccharide concentration 0.25%; initial inoculum 7.0 log cfu ml^−1; buffer only 5.3; 2 h at 37° C.
Experimental: (§1) HT29 cells were grown to 95-100% confluence in 12-well tissue culture plates. Bacterial cultures were grown in tissue culture medium, anaerobically at 37° C. These incubation conditions promoted expression of adhesions by the bacteria. The bacteria (in buffer, with or without the test oligosaccharide) were added to the cell monolayers and incubated for 2 h at 37° C. aerobically under 5% CO2. After incubation, the cell layers were washed three times in buffer and the adherent bacteria quantified. Assays were performed in triplicate
(§2) The tested oligosaccharides were methyl-α-mannopyrannoside and CGMP.
(§3) After the adhesion and washing stages, the cells were suspended and vigorously mixed to break up clumps. The resulting suspension was then plated onto non-selective agar media appropriate for the test organism.
(§4) The Initial inoculum was 7.3 log cfu ml^−1 (VTEC) and 7.0 log cfu ml^−1 (EPEC).

[3] = system: VTEC adhesion to HT29 cells; assay: Adhesion assay of VTEC to HT29 cell monolayers (Example 1); assay type: cell-based, E. coli
Experimental: as §1, §2, §3, §4

[4] = system: E. coli EPEC (O119:H4) adhesion to HT29 cells; assay: Adhesion assay of carbohydrates against E. coli EPEC on HT29 monolayers (Example 3); assay type: cell-based; conditions: carbohydrate solution 5 mg/ml in PBS mixed 1:1 with bacterial suspension; 2 hours at 37° C. aerobically; relative to carbohydrate-free control
Experimental: The saccharides were tested against one strain of E. coli VTEC (0157:1H7 strain NCTC 12900) and one strain of E. coli EPEC (O119:H4).
E. coli broth cultures for adhesion assays were grown in DMEM supplemented with 5% v/v FBS and 1% non-essential amino acid solution (SDMEM). For each strain, a broth was inoculated from a slope culture and incubated anaerobically at 37° C. for 18-24 h. The overnight culture was then inoculated (1% v/v) into fresh SDMEM and incubated for a further 18-24 h under the same conditions. This was repeated once more. On the day of the assay, a 10% v/v inoculum was placed into pre-warmed SDMEM and incubated for 4 h anaerobically at 37° C.
A culture of the test strain was prepared as described above, then diluted 1:500 in PBS. The viable count of the diluted suspension was determined by spread plating onto PCA, with decimal dilutions carried out in MRD as necessary. The carbohydrates to be tested were dissolved in PBS (5 mg/ml) and sterilised by passing through a 0.2 μm syringe filter. […] A 1 ml aliquot of PBS was then pipetted into each well, and pipette mixed until the monolayer was completely dislodged and clumps broken up (as determined visually). […]
Data processing: Viable counts were calculated for all wells and the inoculum, and expressed as colony forming units per ml (cfu/ml). For each test, the mean and standard error of the triplicate wells were calculated. […]

Molecule | Inhibition of adhesion of VTEC to HT29 cells (FIG. 2) [1] | Inhibition of adhesion of VTEC to HT29 cells (FIG. 1) [1] | also measured
OC[C@H]1O[C@H](O[C@@H]2C(O)O[C@H](CO)[C@@H](O)[C@@H]2O)[C@@H](O)[C@@H](O)[C@@H]1O (stereo partly drawn) [Alpha 1,2 mannobiose] | Inhibition of adhesion was detected |  | 
O=C[C@@H](O)[C@@H](O)[C@H](O)[C@H](O)CO [D-mannose] |  | good inhibition of adhesion | 
OC[C@H]1O[C@H](OC[C@H]2O[C@H](O)[C@@H](O)[C@@H](O)[C@@H]2O)[C@@H](O)[C@@H](O)[C@@H]1O [alpha 1,6 mannobiose] | Inhibition of adhesion was detected |  | 
CO[C@H]1O[C@H](CO)[C@@H](O)[C@H](O)[C@@H]1O [methyl-α-mannopyranoside, Methyl-α-D-mannopyranoside] | Inhibition of adhesion | good inhibition of adhesion | Viable count of adhered EPEC [2]: 5.1 log cfu ml^−1; Reduction in adhesion (in words) ([3]; oligosaccharide 0.25%, pathovar not given): reduction in adhesion; Viable count of adhered VTEC ([3]; oligosaccharide concentration 0.25%, initial inoculum 7.3 log cfu ml^−1, buffer only 6.3, 2 h at 37° C.): 4.8 log cfu ml^−1
β-1,3-glucan [curdlan] |  |  | Anti-adhesive activity against enteropathogenic E. coli EPEC (FIG. 5) [4]: positive
